pIC50: −log10 of the molar value. Read-outs that look alike come from different tables or passages of the source.
Assays:
AktK = AktK (Homo sapiens, UniProt P31749); assay: Luciferase-coupled chemiluminescence kinase assay (ATP consumption); type: biochemical; details: read-out: AKT-1 IC50
In short: (§1)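 Activity is read as ATP depletion: luciferase-luciferin reagent added after a 3 h ambient-temperature kinase reaction, with total ATP use limited to 25-60%. Before ATP addition, 2.5-5 nM kinase and compound were preincubated 30 min in Tris pH 7.5/MgCl2/TX-100/DTT buffer; […].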

p70S6K = p70S6K (Homo sapiens, UniProt P23443); assay: as above; type: biochemical
Sequence of p70S6K (P23443 whole entry): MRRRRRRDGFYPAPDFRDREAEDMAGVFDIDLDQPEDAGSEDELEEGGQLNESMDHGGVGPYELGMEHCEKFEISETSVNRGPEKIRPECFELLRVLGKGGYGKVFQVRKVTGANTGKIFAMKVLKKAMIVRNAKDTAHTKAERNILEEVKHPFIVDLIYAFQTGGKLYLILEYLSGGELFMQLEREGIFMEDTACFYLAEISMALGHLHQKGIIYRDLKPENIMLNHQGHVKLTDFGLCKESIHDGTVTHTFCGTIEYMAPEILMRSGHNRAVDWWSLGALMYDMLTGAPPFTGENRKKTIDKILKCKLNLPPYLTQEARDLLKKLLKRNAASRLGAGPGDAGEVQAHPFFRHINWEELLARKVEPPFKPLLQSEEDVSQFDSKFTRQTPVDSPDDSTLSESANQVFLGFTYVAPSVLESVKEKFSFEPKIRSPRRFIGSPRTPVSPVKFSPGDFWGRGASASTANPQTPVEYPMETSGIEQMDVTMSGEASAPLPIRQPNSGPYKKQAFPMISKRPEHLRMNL
In short: as §1

Sequence of AktK (P31749 whole entry): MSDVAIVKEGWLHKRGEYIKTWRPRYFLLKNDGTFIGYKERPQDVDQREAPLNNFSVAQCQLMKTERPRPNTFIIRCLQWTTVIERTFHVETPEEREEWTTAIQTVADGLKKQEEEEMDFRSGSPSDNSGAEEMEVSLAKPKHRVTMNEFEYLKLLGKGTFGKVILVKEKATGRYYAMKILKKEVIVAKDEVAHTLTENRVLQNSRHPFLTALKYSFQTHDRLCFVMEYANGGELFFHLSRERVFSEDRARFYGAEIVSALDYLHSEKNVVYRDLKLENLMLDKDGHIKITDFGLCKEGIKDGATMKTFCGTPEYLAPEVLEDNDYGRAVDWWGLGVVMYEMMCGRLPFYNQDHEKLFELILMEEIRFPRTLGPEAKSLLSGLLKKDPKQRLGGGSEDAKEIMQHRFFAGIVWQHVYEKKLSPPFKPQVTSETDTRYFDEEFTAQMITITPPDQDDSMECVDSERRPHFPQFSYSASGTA

| Compound | pIC50 (AktK) | pIC50 (p70S6K) | pIC50 (AktK; Table 1, class symbols per key) | pIC50 (p70S6K; Table 1, class symbols per key) |
| --- | --- | --- | --- | --- |
| Cc1ccc(Cl)cc1N1CCN(c2ncnc3[nH]nc(CCC(=O)O)c23)CC1 [Entry 370, 3-{4-[4-(5-chloro-2-methylphenyl)piperazin-1-yl]-1H-pyrazolo[3,4-d]pyrimidin-3-yl}propanoic acid] | 5.00 to 6.00 | > 7.00 | – | – |
| CCc1ccccc1N1CCN(c2ncnc3[nH]nc(Br)c23)CC1 [Entry 105, 3-bromo-4-[4-(2-ethylphenyl)piperazin-1-yl]-1H-pyrazolo[3,4-d]pyrimidine] | – | – | ≤ 5.00 | 6.00 to 7.00 |
| Cc1ccc(Cl)cc1N1CCN(c2ncnc3[nH]nc(Br)c23)C[C@@H]1C [Entry 164, 3-bromo-4-[(3S)-4-(5-chloro-2-methylphenyl)-3-methylpiperazin-1-yl]-1H-pyrazolo[3,4-d]pyrimidine] | – | – | 6.00 to 7.00 | > 7.00 |
| Cc1ccc(Cl)cc1N1CCN(c2ncnc3[nH]nc(-c4cccc(O)c4)c23)CC1 [Entry 335, 3-{4-[4-(5-chloro-2-methylphenyl)piperazin-1-yl]-1H-pyrazolo[3,4-d]pyrimidin-3-yl}phenol] | 5.00 to 6.00 | 6.00 to 7.00 | – | – |
| CCc1n[nH]c2ncnc(N3CCN(c4cc(Cl)cc(OCCN5CCN(CC)CC5)c4C)CC3)c12 [Entry 25, 4-[4-(5-chloro-3-{[2-(4-ethylpiperazin-1-yl)ethyl]oxy}-2-methylphenyl)piperazin-1-yl]-3-ethyl-1H-pyrazolo[3,4-d]pyrimidine] | – | – | 5.00 to 6.00 | > 7.00 |
| Cc1n[nH]c2ncnc(N3CCN(c4cccc(Cl)c4)CC3)c12 [Entry 318, 4-[4-(3-chlorophenyl)piperazin-1-yl]-3-methyl-1H-pyrazolo[3,4-d]pyrimidine] | ≤ 5.00 | > 7.00 | – | – |
| CCc1n[nH]c2ncnc(N3CCN(c4cc(Cl)ccc4OC)CC3)c12 [Entry 334, 4-{4-[5-chloro-2-(methyloxy)phenyl]piperazin-1-yl}-3-ethyl-1H-pyrazolo[3,4-d]pyrimidine] | 5.00 to 6.00 | > 7.00 | – | – |
| Fc1ccc(N2CCN(c3ncnc4[nH]nc(Br)c34)CC2)cc1F [Entry 76, 3-bromo-4-[4-(3,4-difluorophenyl)piperazin-1-yl]-1H-pyrazolo[3,4-d]pyrimidine] | – | – | ≤ 5.00 | 6.00 to 7.00 |
| Cc1c(NCCN2CCCC2)cc(C(=O)NC(C)(C)C)cc1N1CCN(c2ncnc3[nH]nc(Br)c23)CC1 [Entry 214, 3-[4-(3-bromo-1H-pyrazolo[3,4-d]pyrimidin-4-yl)piperazin-1-yl]-N-(1,1-dimethylethyl)-4-methyl-5-[(2-pyrrolidin-1-ylethyl)amino]benzamide] | – | – | > 7.00 | > 7.00 |
| CCc1n[nH]c2ncnc(N3CCN(c4cc(Cl)cc(OCCCN5CCCC5)c4C)CC3)c12 [Entry 35, 4-(4-{5-chloro-2-methyl-3-[(3-pyrrolidin-1-ylpropyl)oxy]phenyl}piperazin-1-yl)-3-ethyl-1H-pyrazolo[3,4-d]pyrimidine] | – | – | 6.00 to 7.00 | > 7.00 |
| CCc1n[nH]c2ncnc(N3CCN(c4cccc(Cl)c4)C(C(=O)NC)C3)c12 (stereo not drawn) [Entry 353, 1-(3-chlorophenyl)-4-(3-ethyl-1H-pyrazolo[3,4-d]pyrimidin-4-yl)-N-methylpiperazine-2-carboxamide] | 5.00 to 6.00 | 6.00 to 7.00 | – | – |
| Cc1c(NCCN2CCCC2)cc(OCC(C)C)cc1N1CCN(c2ncnc3[nH]nc(Br)c23)CC1 [Entry 184, 3-[4-(3-bromo-1H-pyrazolo[3,4-d]pyrimidin-4-yl)piperazin-1-yl]-2-methyl-5-[(2-methyl-propyl)oxy]-N-(2-pyrrolidin-1-ylethyl)aniline] | – | – | > 7.00 | > 7.00 |
| Cc1c(CCCN2CCCC2)cc(Cl)cc1N1CCN(c2ncnc3[nH]nc(C#CCO)c23)CC1 [Entry 182, 3-(4-{4-[5-chloro-2-methyl-3-(3-pyrrolidin-1-ylpropyl)phenyl]piperazin-1-yl}-1H-pyrazolo[3,4-d]pyrimidin-3-yl)prop-2-yn-1-ol] | – | – | > 7.00 | > 7.00 |
| Cc1ccc(C(=O)Nc2ccccc2)cc1N1CCN(c2ncnc3[nH]nc(Br)c23)C[C@@H]1CO [Entry 200, 3-[(2R)-4-(3-bromo-1H-pyrazolo[3,4-d]pyrimidin-4-yl)-2-(hydroxymethyl)piperazin-1-yl]-4-methyl-N-phenylbenzamide] | – | – | > 7.00 | > 7.00 |
| Cc1ccc(Cl)cc1N1CCN(c2ncnc3[nH]nc(-c4ccccc4)c23)CC1 [Entry 327, 4-[4-(5-chloro-2-methylphenyl)piperazin-1-yl]-3-phenyl-1H-pyrazolo[3,4-d]pyrimidine] | 5.00 to 6.00 | > 7.00 | – | – |
| 3-[4-(3-bromo-1H-pyrazolo[3,4-d]pyrimidin-4-yl)piperazin-1-yl]-5-(butyloxy)-2-methyl-N-(2-pyrrolidin-1-ylethyl)aniline [Entry 208] | – | – | > 7.00 | > 7.00 |
| COC(=O)c1cc(Br)c(C)c(N2CCN(c3ncnc4[nH]nc(Br)c34)CC2)c1 [Entry 186, methyl 3-bromo-5-[4-(3-bromo-1H-pyrazolo[3,4-d]pyrimidin-4-yl)piperazin-1-yl]-4-methylbenzoate] | – | – | 6.00 to 7.00 | > 7.00 |

| Compound | pIC50 (AktK) | pIC50 (p70S6K) | pIC50 (AktK; Table 1, class symbols per key) | pIC50 (p70S6K; Table 1, class symbols per key) |
| --- | --- | --- | --- | --- |
| CON(C)C(=O)c1cc(NCCN2CCCC2)c(C)c(N2CCN(c3ncnc4[nH]nc(Br)c34)CC2)c1 [Entry 249, 3-[4-(3-bromo-1H-pyrazolo[3,4-d]pyrimidin-4-yl)piperazin-1-yl]-N,4-dimethyl-N-(methyloxy)-5-[(2-pyrrolidin-1-ylethyl)amino]benzamide] | – | – | 6.00 to 7.00 | > 7.00 |
| Cc1c(NCCN2CCCC2)cc(C(=O)Nc2ccccc2)cc1N1CCN(c2ncnc3[nH]nc(Br)c23)CC1 [Entry 194, 3-[4-(3-bromo-1H-pyrazolo[3,4-d]pyrimidin-4-yl)piperazin-1-yl]-4-methyl-N-phenyl-5-[(2-pyrrolidin-1-ylethyl)amino]benzamide] | – | – | > 7.00 | > 7.00 |
| Cc1noc(-c2cc(NCCN3CCCC3)c(C)c(N3CCN(c4ncnc5[nH]nc(Br)c45)CC3)c2)n1 [Entry 242, 3-[4-(3-bromo-1H-pyrazolo[3,4-d]pyrimidin-4-yl)piperazin-1-yl]-2-methyl-5-(3-methyl-1,2,4-oxadiazol-5-yl)-N-(2-pyrrolidin-1-ylethyl)aniline] | – | – | > 7.00 | > 7.00 |
| Cc1cccc(C)c1N1CCN(c2ncnc3[nH]nc(Br)c23)CC1 [Entry 103, 3-bromo-4-[4-(2,6-dimethylphenyl)piperazin-1-yl]-1H-pyrazolo[3,4-d]pyrimidine] | – | – | ≤ 5.00 | 6.00 to 7.00 |
| Cc1c(NCCN2CCCC2)cc(-c2ccccc2)cc1N1CCN(c2ncnc3[nH]nc(Br)c23)CC1 [Entry 231, 5-[4-(3-bromo-1H-pyrazolo[3,4-d]pyrimidin-4-yl)piperazin-1-yl]-4-methyl-N-(2-pyrrolidin-1-ylethyl)biphenyl-3-amine] | – | – | > 7.00 | > 7.00 |
| CCc1n[nH]c2ncnc(N3CCN(c4cc(Cl)cc(CCCN5CCN(C)CC5)c4C)CC3)c12 [Entry 62, 4-(4-{5-chloro-2-methyl-3-[3-(4-methylpiperazin-1-yl)propyl]phenyl}piperazin-1-yl)-3-ethyl-1H-pyrazolo[3,4-d]pyrimidine] | – | – | 6.00 to 7.00 | > 7.00 |
| CCCC(F)(F)c1cc(NCCN2CCCC2)c(C)c(N2CCN(c3ncnc4[nH]nc(Br)c34)CC2)c1 [Entry 277, 3-[4-(3-bromo-1H-pyrazolo[3,4-d]pyrimidin-4-yl)piperazin-1-yl]-5-(1,1-difluorobutyl)-2-methyl-N-(2-pyrrolidin-1-ylethyl)aniline] | – | – | > 7.00 | > 7.00 |
| Fc1ccc(F)c(N2CCN(c3ncnc4[nH]nc(Br)c34)CC2)c1 [Entry 131, 3-bromo-4-[4-(2,5-difluorophenyl)piperazin-1-yl]-1H-pyrazolo[3,4-d]pyrimidine] | – | – | ≤ 5.00 | > 7.00 |
| Clc1cccc(N2CCN(c3ncnc4[nH]ncc34)CC2)c1 [Entry 298, 4-[4-(3-chlorophenyl)piperazin-1-yl]-1H-pyrazolo[3,4-d]pyrimidine] | ≤ 5.00 | 6.00 to 7.00 | – | – |
| Cc1ccc(Cl)cc1N1CCN(c2ncnc3[nH]nc(Cc4ccccc4)c23)CC1 [Entry 354, 4-[4-(5-chloro-2-methylphenyl)piperazin-1-yl]-3-(phenylmethyl)-1H-pyrazolo[3,4-d]pyrimidine] | 5.00 to 6.00 | 6.00 to 7.00 | – | – |
| CCc1n[nH]c2ncnc(N3CCN(c4cc(Cl)c(OCCCN(C)C)cc4C)CC3)c12 [Entry 388, 3-({2-chloro-4-[4-(3-ethyl-1H-pyrazolo[3,4-d]pyrimidin-4-yl)piperazin-1-yl]-5-methylphenyl}oxy)-N,N-dimethylpropan-1-amine] | 5.00 to 6.00 | 6.00 to 7.00 | – | – |
| 3-bromo-4-(4-{4-methyl-2′-[(2-pyrrolidin-1-ylethyl)oxy]biphenyl-3-yl}piperazin-1-yl)-1H-pyrazolo[3,4-d]pyrimidine [Entry 269] | – | – | > 7.00 | > 7.00 |
| CCc1nc(N2CCN(c3cc(Cl)ccc3C)CC2)c2cn[nH]c2n1 [Entry 325, 4-[4-(5-chloro-2-methylphenyl)piperazin-1-yl]-6-ethyl-1H-pyrazolo[3,4-d]pyrimidine] | 5.00 to 6.00 | 5.00 to 6.00 | – | – |
| Cc1ccc(Cl)cc1N1CCN(c2ncnc3[nH]nc(C(F)(F)F)c23)CC1 [Entry 348, 4-[4-(5-chloro-2-methylphenyl)piperazin-1-yl]-3-(trifluoromethyl)-1H-pyrazolo[3,4-d]pyrimidine] | 5.00 to 6.00 | > 7.00 | – | – |
| CCc1n[nH]c2ncnc(N3CCN(c4cc(Cl)cc(CCCN5CCCC5)c4C)CC3)c12 [Entry 403, 4-{4-[5-chloro-2-methyl-3-(3-pyrrolidin-1-ylpropyl)phenyl]piperazin-1-yl}-3-ethyl-1H-pyrazolo[3,4-d]pyrimidine] | 6.00 to 7.00 | > 7.00 | – | – |
| CCc1n[nH]c2ncnc(N3CCN(c4cc(Cl)cc(OCCN(CC)CC)c4)CC3)c12 [Entry 170, 2-({3-chloro-5-[4-(3-ethyl-1H-pyrazolo[3,4-d]pyrimidin-4-yl)piperazin-1-yl]phenyl}oxy)-N,N-diethylethanamine] | – | – | ≤ 5.00 | 6.00 to 7.00 |
